Test results published in PubChem BioAssay (NCI).
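Exposure lasted 48 hours, with cells grown in 96-well plates and compounds tested at five concentrations. TGI: concentration producing complete growth inhibition.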

Columns and labels:
Assay in all cases: DTP human tumour cell line panel, 48 h
[1] = tested on: OVCAR-8 ovarian
[2] = tested on: SK-OV-3 ovarian
[3] = tested on: OVCAR-4 ovarian
[4] = tested on: UACC-62 melanoma
[5] = tested on: SK-MEL-5 melanoma
[6] = tested on: 786-0 renal
[7] = tested on: SN12C renal
[8] = tested on: SNB-78 CNS
[9] = tested on: KM12 colon
[10] = tested on: UO-31 renal
[11] = tested on: SF-539 CNS
[12] = tested on: CCRF-CEM leukemia
[13] = tested on: HOP-18 NSCLC
[14] = tested on: SK-MEL-28 melanoma
[15] = tested on: U251 CNS
[16] = tested on: DMS 273 small cell lung
[17] = tested on: RPMI-8226 leukemia
[18] = tested on: OVCAR-5 ovarian
[19] = tested on: NCI-H23 lung
[20] = tested on: NCI-H226 lung
[21] = tested on: A549 NSCLC
[22] = tested on: LOX IMVI melanoma
[23] = tested on: MOLT-4 leukemia
[24] = tested on: SF-295 CNS
[25] = tested on: EKVX NSCLC
[26] = tested on: DMS 114 small cell lung
[27] = tested on: IGROV1 ovarian
[28] = tested on: K-562 leukemia
[29] = tested on: HCC-2998 colon
[30] = tested on: M19-MEL melanoma
[31] = tested on: COLO 205 colon
[32] = tested on: OVCAR-3 ovarian
[33] = tested on: HCT-15 colon
[34] = tested on: SNB-75 CNS
[35] = tested on: RXF 393 renal
[36] = tested on: TK-10 renal
[37] = tested on: SK-MEL-2 melanoma
[38] = tested on: UACC-257 melanoma
[39] = tested on: HOP-62 NSCLC
[40] = tested on: M14 melanoma
[41] = tested on: HCT-116 colon
[42] = tested on: HL-60(TB) leukemia
[43] = tested on: MALME-3M melanoma
[44] = tested on: KM20L2 colon
[45] = tested on: NCI-H460 lung
[46] = tested on: SW-620 colon
[47] = tested on: DLD-1 colon
[48] = tested on: LXFL 529 NSCLC
[49] = tested on: SF-268 CNS
[50] = tested on: CAKI-1 renal
[51] = tested on: SNB-19 CNS
[52] = tested on: HOP-92 NSCLC
[53] = tested on: HT29 colon
[54] = tested on: RXF-631 renal
[55] = tested on: ACHN renal
[56] = tested on: SR leukemia

Measured: TGI

CC(C)(C)C[P+](C)(C)c1ccccc1
> 100 µM: all assays above
